For data set [1], the system named is RSV, Long strain. Briefly: virus titer Reduction (VTR) assay, progeny virus TCID50 in HEp-2 cells. As to conditions: human respiratory syncytial virus, 48 h; for log reduction at 3 µg/mL: 3 ug/ml compound, read-out: TCID-50 Reduction @ 3 ug/ml; for log reduction at 6 µg/mL: 6 ug/ml compound, read-out: TCID-50 Reduction 6 @ ug/ml; for log reduction at 12 µg/mL: 12 ug/ml compound, read-out: TCID-50 Reduction 12 @ ug/ml; for log reduction at 25 µg/mL: 25 ug/ml compound, read-out: TCID-50 Reduction 25 @ ug/ml; for log reduction at 5 µg/mL: 5 ug/ml compound, read-out: TCID-50 Reduction @ 5 ug/ml. The format is cell-based, respiratory syncytial virus (RSV). The protocol:
Four concentrations of each compound were evaluated (Table 3). Briefly, the four concentrations of test compounds, HEp-2 cells (8×10^3 per well) and RSV, Long strain (MOI=0.9) were plated in 96 well microtiter plates. The plates were incubated for 48 hours. Fifteen (15) μl of 10-fold serial dilution of progeny virus containing medium from respective samples (test compound treated or untreated) was transferred to infect fresh HEp-2 cells (2×10^3 cells per well) in a 384 well format. Plates were incubated for an additional 6 days and luminescence was measured using Cell Titer-Glo reagent (Promega Inc.) to determine cell viability. […] A well showing lesser than 50% cell viability was regarded as positive for virus infection. Four replicates for each virus dilution were analyzed and the number of virus positive wells (out of 4) was plotted versus the dilution. TCID50 was calculated to be the dilution that produced two positive wells out of four using ActivityBase software (IDBS, Inc, Guilford, UK).

In data set [2] the test system is respiratory syncytial virus (RSV) strain Long. Description: microbe, parasite or virus in culture. The following applies: human respiratory syncytial virus, HEp-2, 144 h.
Protocol: The assay measures RSV virus-induced CPE in HEp-2 cells using cell viability as the end point.
Two vials of RSV (strain Long) containing 1×10^7 pfu/mL was thawed using an Eppendorf thermomixer for 13 min at 15° C., with shaking at 350 rpm. […] The cells were incubated for 18-20 h at 37° C., 5% CO2, 90% relative humidity. The medium was aspirated and the cells washed with 10 mL PBS without Mg^2+ or Ca^2+. Cells were harvested from flasks using 0.25% trypsin-EDTA. The cells were resuspended in a freezing medium of 95% fetal calf serum and 5% DMSO to a final cell density of 2×10^6 cells/mL. One mL aliquots of this virus infected cell suspension were dispensed to cryovials and cells were rate frozen to −80° C. Frozen infected cells were then transferred to −150° C. for long term storage.
(§1) Test compounds were evaluated by measuring their antiviral activity, cell toxicity, and selectivity. Test compounds were serially diluted in a plate to plate matrix or “stacked plate” matrix. All 320 compounds in a source plate were diluted together resulting in a 10 point dose response dilution series. It was visualized as a serial dilution series proceeding vertically through a stack of plates with the high dose plate on top and the low dose plate on the bottom.
Cells were harvested and resuspended to 80,000 cells per ml in Complete DMEM/F12.
Cells were thawed in a room temperature water bath with gentle agitation. The tube was inverted 5-10. Cells were diluted to 80,000 cells per ml by adding the contents of the vial to 24 ml of cold (4° C.) media.
Twenty five ul of uninfected HEp-2 cells were plated in the cell control wells. Frozen infected cells were combined with uninfected HEp-2 cells at a 1:100 ratio. Twenty five ul of the cell mixture was added to the virus control and compound wells. All cell plating was conducted using a Matrix WellMate and cells were maintained at room temperature with stirring during the plating process. The assay plates were incubated for six days at 37° C., 5% CO2 and 90% relative humidity.
(§2) Following the six day incubation period, the assay plates were equilibrated to room temperature for 30 min and an equal volume (30 μL) of Cell Titer-Glo reagent (Promega Inc.) was added to each well using a WellMate (Matrix, Hudson, N.H.) and plates were incubated for an additional 10 min at room temperature. At the end of the incubation, luminescence was measured using a Perkin Elmer Envision™ multi-label reader (PerkinElmer, Wellesley, Mass.) with an integration time of 0.1 s.
(§3) Data was analyzed using ActivityBase software (IDBS, Inc, Guilford, UK). thirty two control wells containing cells only and twenty four wells containing cells and virus were included on each assay plate and used to calculate Z′ value for each plate and to normalize the data on a per plate basis. […] Eight ribavirin positive control wells were included on each plate for quality control purposes, but were not used in Z′ calculations. […] In the toxicity assay, results are described as percent viability and the calculation is the same.
(§4) An EC50 (for CPE inhibition) and IC50 (for cell viability) were calculated for each substance using the 4 parameter Levenburg-Marquardt algorithm with parameter A locked at 0 and parameter B locked at 100. Standard deviation, normalized chi2 and hill slope were used to evaluate the curves. Values were not extrapolated beyond the tested range of concentrations.
Data set [3] is described as follows: cytotoxicity assay (percent viability of HEp-2 cells, Cell Titer-Glo). The following applies: human, HEp-2 cells. (In general: Cellular ATP, detected with luciferase, serves as a proxy for viable cell number.)
Protocol: as §1, §2, §3, §4

Converted amounts (≈) assume the structure as drawn.

For eleven compounds, log reduction, EC50 and CC50 results are on record in patent US20130085133A1, “ANTI-VIRAL TREATMENT AND ASSAY TO SCREENFOR ANTI-VIRAL AGENT” (Sourthern Research Institute Office of Commercialization …, priority 2010, published 2013).

For orientation: EC50 means the concentration that produces a half-maximal response. A high value points to a less potent agent. As usually defined, the CC50 is the concentration at which the toxic effect on the cells reaches its halfway point. A high value points to better tolerance by the cells.

Regarding `COc1ccc(C(=O)Nc2ccc3c(c2)OCCO3)c(OC)c1` [AB00296320], in data set [1], the log reduction at 3 µg/mL amounted to 1.55, the log reduction at 6 µg/mL worked out at 1.38, the log reduction at 12 µg/mL turned out to be 2.9 and the log reduction at 25 µg/mL was found to be 4.66. Also, the EC50 in data set [2] was found to be 8.34 µg/mL (≈ 26.4 µM). Further, the CC50 at 6 days in data set [3] was above 25 µg/mL.

For the compound `CCCn1c(COc2ccccc2OC)nc2ccccc21` [AB00296415], in data set [1], the log reduction at 3 µg/mL turned out to be 1.74, the log reduction at 5 µg/mL was determined as 2.48, the log reduction at 12 µg/mL was determined as 2.59 and the log reduction at 25 µg/mL turned out to be 5.9. Also, in data set [2], the midpoint of the response, the EC50, lay at 4.88 µg/mL (≈ 16.5 µM). Further, the CC50 at 6 days in data set [3] was above 25 µg/mL.

Consider `CCCn1cnc2sc(-c3ccccc3)cc2c1=O` [AB00298501], for which, in data set [1], the log reduction at 3 µg/mL amounted to 1.82, the log reduction at 6 µg/mL turned out to be 2.38, the log reduction at 12 µg/mL came to 2.9 and the log reduction at 25 µg/mL was found to be 3.78. The EC50 in data set [2] was 3.14 µg/mL (≈ 11.6 µM). In data set [3], this compound showed a CC50 at 6 days above 25 µg/mL.

Consider `CC(=O)N(CCCCN1C(=O)c2ccccc2C1=O)c1ccc(C)cc1` [AB00300194], for which, in data set [1], the log reduction at 3 µg/mL was 1.41, the log reduction at 5 µg/mL is 1.83, the log reduction at 12 µg/mL was 2.04 and the log reduction at 25 µg/mL came out at 2.56. The compound further displayed an EC50 in data set [2] of 9.01 µg/mL (≈ 25.7 µM). In addition, the CC50 at 6 days in data set [3] is above 25 µg/mL.

Regarding `Cc1ccc(N(CCCCN2C(=O)c3ccccc3C2=O)C(=O)c2cccc([N+](=O)[O-])c2)cc1` [AB00301184], in data set [1], the log reduction at 3 µg/mL came to 1.53, the log reduction at 6 µg/mL amounted to 1.67, the log reduction at 12 µg/mL is 1.9 and the log reduction at 25 µg/mL was 1.88. In data set [2], this compound showed an EC50 of 2.53 µg/mL (≈ 5.53 µM). The compound further showed a CC50 at 6 days in data set [3] above 25 µg/mL.

For the compound `O=C1c2ccccc2C(=O)N1CCCCN(C(=O)c1cccc([N+](=O)[O-])c1)c1ccc(Cl)cc1` [AB00301782], in data set [1], the log reduction at 3 µg/mL amounted to 1.55, the log reduction at 6 µg/mL came to 1.64, the log reduction at 12 µg/mL was 1.42 and the log reduction at 25 µg/mL was 0.87. For the same compound, in data set [2], a half-maximal response (EC50) required 2.01 µg/mL (≈ 4.21 µM). The same compound registered a CC50 at 6 days in data set [3] above 25 µg/mL.

In the case of `O=C1c2ccccc2C(=O)N1CCCCN(C(=O)c1ccco1)c1ccc(Cl)cc1` [AB00302018], in data set [1], the log reduction at 3 µg/mL is 1.66, the log reduction at 6 µg/mL was 2.64, the log reduction at 12 µg/mL was determined as 2.68 and the log reduction at 25 µg/mL turned out to be 3.07. In addition, the EC50 in data set [2] amounted to 3.4 µg/mL (≈ 8.04 µM). For the same compound, the CC50 at 6 days in data set [3] is above 25 µg/mL.

Take `O=C(NCCSCc1c(F)cccc1Cl)c1cccc([N+](=O)[O-])c1` [AB00306112]: in data set [1], the log reduction at 3 µg/mL came to 1.85, the log reduction at 6 µg/mL amounted to 1.38, the log reduction at 12 µg/mL worked out at 1.68 and the log reduction at 25 µg/mL amounted to 2.88. In data set [2], the EC50 amounted to 5.86 µg/mL (≈ 15.9 µM). Besides, the CC50 at 6 days in data set [3] is above 25 µg/mL.

`Cc1sc(NC(=O)c2c(F)cccc2F)nc1-c1ccccc1` [AB00309154]: in data set [1], the log reduction at 3 µg/mL came out at 1.54, the log reduction at 6 µg/mL was 1.38, the log reduction at 12 µg/mL was found to be 1.42 and the log reduction at 25 µg/mL was determined as 1.88. Further, the response in data set [2] was half-maximal at 6.41 µg/mL (≈ 19.4 µM) (EC50). In data set [3], this compound showed a CC50 at 6 days above 25 µg/mL.

As to `Cc1ccc(-c2csc(N)c2C(N)=O)cc1C` [AB00310739], in data set [1], the log reduction at 3 µg/mL stood at 1.03, the log reduction at 6 µg/mL stood at 1.86, the log reduction at 12 µg/mL worked out at 1.9 and the log reduction at 25 µg/mL is 2.39. The compound also had an EC50 in data set [2] of 6.31 µg/mL (≈ 25.6 µM). The same compound had a CC50 at 6 days in data set [3] above 25 µg/mL.

In the case of `COC(=O)c1c(-c2ccccc2)csc1NC(=O)c1ccccc1Cl` [AB00311298], in data set [1], the log reduction at 3 µg/mL turned out to be 1.53, the log reduction at 6 µg/mL was found to be 1.86, the log reduction at 12 µg/mL is 1.9 and the log reduction at 25 µg/mL came to 1.88. In data set [2], this compound yielded an EC50 of 7.72 µg/mL (≈ 20.8 µM). The compound further registered a CC50 at 6 days in data set [3] above 25 µg/mL.
